Test results as given in US20240122180A1, “FUNGICIDAL HALOMETHYL KETONES AND HYDRATES AND THEIR MIXTURES” (FMC Corporation, priority 2020, published 2024).
Marks after values point to notes of the source that are not given here.

How the values were obtained:
Format in all cases: in vivo
[1] = system: Blumeria graminis f. sp. tritici (the causal agent of wheat powdery mildew); test: Test E: preventive spray on wheat seedlings, visual disease rating (100 = 100% control; * 50 ppm, ** 10 ppm, *** 250 ppm); settings: 100 = 100% disease control; for Test E disease control rating / pest or weed control at 250 ppm: 250 ppm test suspension
Description: (§1) General protocol for preparing test suspensions for Tests A-E: the test compounds were first dissolved in acetone in an amount equal to 3% of the final volume and then suspended at the desired concentration (in ppm) in acetone and purified water (50/50 mix by volume) containing 250 ppm of the surfactant […] (polyhydric alcohol esters). The resulting test suspensions were then used in Tests A-E.
The test suspension was sprayed to the point of run-off on wheat seedlings. The following day the seedlings were inoculated with a spore dust of Blumeria graminis f. sp. tritici, (also known as Erysiphe graminis f. sp. tritici, the causal agent of wheat powdery mildew) and incubated in a growth chamber at 20° C. for 8 days, after which time visual disease ratings were made.
(§2) Results for Tests A-E are given in Table A. In the Table, a rating of 100 indicates 100% disease control and a rating of 0 indicates no disease control (relative to the controls). An asterisk “*” or a double asterisk “**” or a triple asterisk “***” next to the rating value indicates a 50 ppm, 10 ppm and 250 ppm test suspension was used, respectively. A dash (-) indicates the compound was not tested.

[2] = system: Puccinia recondita f. sp. tritici (the causal agent of wheat leaf rust); test: Test B: preventive spray on wheat seedlings, disease rating (100 = 100% control; * 50 ppm, ** 10 ppm, *** 250 ppm); settings: 100 = 100% disease control
Summary of the method: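 Wheat seedlings sprayed to run-off with compound in acetone/water (50/50) containing 250 ppm PEG400, inoculated next day with Puccinia recondita f. sp. tritici spores. Held 24 h saturated at 20° C, then 6 days at 20° C; disease control rated 0–100 relative to controls.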

[3] = system: Zymoseptoria tritici (the causal agent of wheat leaf blotch); test: Test D: preventive spray on wheat seedlings, disease rating (100 = 100% control; * 50 ppm, ** 10 ppm, *** 250 ppm); settings: 250 ppm test suspension, 100 = 100% disease control; for pest or weed control at 250 ppm: Zymoseptoria tritici
Description: as §1
The test solution was sprayed to the point of run-off on wheat seedlings. The following day the seedlings were inoculated with a spore suspension of Zymoseptoria tritici (the causal agent of wheat leaf blotch) and incubated in a saturated atmosphere at 24° C. for 48 h, and then moved to a growth chamber at 20° C. for 17 days, after which time disease ratings were made.
as §2

[4] = system: Phakopsora pachyrhizi (the causal agent of Asian soybean rust); test: Test A: preventive spray on soybean seedlings, visual disease rating (100 = 100% control; * 50 ppm, ** 10 ppm, *** 250 ppm); settings: 100 = 100% disease control
Summary of the method: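 Soybean seedlings sprayed to run-off with compound suspended in acetone/water with 250 ppm PEG400 surfactant, inoculated next day with P. pachyrhizi spores. Kept 24 h saturated at 22 °C, then 8 days at 22 °C before visual rating of disease control (0-100) relative to controls.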

[5] = system: Phakopsora pachyrhizi (the causal agent of Asian soybean rust); test: Test F: Compound 32 or 64 alone and in mixtures on soybean seedlings, observed (Obsd) and Colby expected (Exp) disease control; settings: for pest or weed control at 20.511 ppm: trifloxystrobin 20.511 ppm alone; for pest or weed control at 35.31 ppm: trifloxystrobin 35.310 ppm alone; for pest or weed control at 544.265 ppm: flutriafol 544.265 ppm alone; for pest or weed control at 1124.02 ppm: flutriafol 1124.021 ppm alone; for pest or weed control at 242.823 ppm: fenpropimorph 242.823 ppm alone; for pest or weed control at 458.587 ppm: fenpropimorph 458.587 ppm alone
Description: The general protocol for preparing test compositions for Test F was as follows: Compound 32, Compound 64, azoxystrobin, benzovindiflupyr, bixafen, chlorothalonil, cyproconazole, epoxiconazole, fenpropidin, fenpropimorph, fluindapyr, flutriafol, fluxapyroxad, metominostrobin, picoxystrobin, prothioconazole, pydiflumetofen, pyraclostrobin, tebuconazole and trifloxystrobin were obtained as unformulated, technical-grade materials. Copper hydroxide and mancozeb was obtained as a formulated product marketed under the trademarks KOCIDE 3000 and MANZATE, respectively. Unformulated materials were first dissolved in acetone and then suspended at the desired concentration (in ppm) in acetone and purified water (50/50 mix by volume) containing 250 ppm of the surfactant Trem® 014 (polyhydric alcohol esters). Formulated materials were dispersed in sufficient water to give the desired concentration, and neither organic solvent nor surfactant was added to the suspension. The resulting test mixtures were then used in Test F. The tests were run on four individual plants and the results reported as the mean average of the four plants.
The presence of a synergistic effect between two active ingredients was established with the aid of the Colby equation (see Colby, S. R. “Calculating Synergistic and Antagonistic Responses of Herbicide Combinations”, Weeds, (1967), 15, 20-22):
Using the method of Colby, the presence of a synergistic interaction between two active ingredients is established by first calculating the predicted activity, p, of the mixture based on activities of the two components applied alone. If p is lower than the experimentally established effect, synergism has occurred. In the equation above, A is the fungicidal activity in percentage control of one component applied alone at rate x. The B term is the fungicidal activity in percentage control of the second component applied at rate y. The equation estimates p, the expected fungicidal activity of the mixture of A at rate x with B at rate y if their effects are strictly additive and no interaction has occurred.
The test mixture was sprayed to the point of run-off on soybean seedlings. The following day the seedlings were inoculated with a spore suspension of Phakopsora pachyrhizi (the causal agent of Asian soybean rust) and incubated in a saturated atmosphere at 22° C. for 24 h and then moved to a growth chamber at 22° C. for 8 days, after which time visual disease ratings were made.
Results for Test F are given in Tables B-1 through I-1 for Compound 32 and Tables B-2 through I-2 for Compound 64. Each table corresponds to a set of evaluations performed together at the same time. In each table, a rating of 100 indicates 100% disease control and a rating of 0 indicates no disease control (relative to the controls). Columns labeled “Obsd” indicate the average of results observed from test run on four individual plants. Columns labeled “Exp” indicate the expected value for each treatment mixture using the Colby equation.

[6] = Puccinia recondita, 50 ppm test suspension, wheat seedlings
[7] = 50 ppm test suspension, 0 = no control
[8] = 10 ppm test suspension, soybean seedlings
[9] = 10 ppm test suspension, wheat seedlings
[10] = Phakopsora pachyrhizi, Table E-2
[11] = Phakopsora pachyrhizi, Table I-1
[12] = Phakopsora pachyrhizi, Table I-2
[13] = Blumeria graminis, wheat seedlings
[14] = 10 ppm test suspension, 0 = no control
[15] = Phakopsora pachyrhizi, Table D-1
[16] = Phakopsora pachyrhizi, Table D-2

Compound: CCOC(=O)c1cnn(Cc2ccc(OCC3(C(F)(F)F)OCCO3)cn2)c1 [compound 124]
- pest or weed control at 50 ppm ([1]; Blumeria graminis, 50 ppm test suspension, wheat seedlings): 98%
- pest or weed control at 50 ppm [2, 6]: 0%
- pest or weed control at 250 ppm ([3]; wheat seedlings): 92%

Compound: CC(=O)N1CC(c2ccc(OCC(O)(O)C(F)(F)F)cc2)C1 [compound 384]
- Test E disease control rating ([1]; 0 = no control): 87*** %
- Test A disease control rating [4, 7]: 99%
- Test B disease control rating [2, 7]: 83%
- Test D disease control rating ([3]; 0 = no control): 48*** %

Compound: CCO/C(=C\Oc1ccc(Cn2cc(C(=O)OCC(=O)c3ccccc3)cn2)cc1)C(F)(F)F [compound 244]
- Test E disease control rating ([1]; wheat seedlings): 0*** %
- Test A disease control rating [4, 8]: 100%
- Test B disease control rating [2, 9]: 0%
- Test D disease control rating ([3]; wheat seedlings): 0*** %

Compound: CCOC(=O)c1cnn(Cc2ccc(OCC(O)(O)C(F)(F)F)c(Cl)c2)c1 [Compound 459]
- Test E disease control rating ([1]; 0 = no control): 0*** %
- Test A disease control rating [4, 7]: 100%
- Test B disease control rating [2, 7]: 97%
- Test D disease control rating ([3]; 0 = no control): 37*** %

Compound: CCOC(=O)c1cnn(COc2cccc(OCC(O)(O)C(F)(F)F)c2)c1 [compound 320]
- pest or weed control at 250 ppm ([1]; Blumeria graminis, 0 = no control): 91%
- pest or weed control at 10 ppm ([4]; Phakopsora pachyrhizi, 10 ppm test suspension, 0 = no control): 89%
- pest or weed control at 10 ppm ([2]; Puccinia recondita, 10 ppm test suspension, 0 = no control): 68%
- pest or weed control at 250 ppm ([3]; 0 = no control): 81%

Compound: CC(=O)N1CC(c2ccc(OCC3(C(F)(F)F)OCCO3)cc2)C1 [compound 372]
- Test E disease control rating ([1]; 0 = no control): 99*** %
- Test A disease control rating [4, 7]: 97%
- Test B disease control rating [2, 7]: 28%
- Test D disease control rating ([3]; 0 = no control): 99*** %

Compound: O=[N+]([O-])c1ccc(OCC(O)(O)C(F)(F)F)cc1 [compound 280]
- Test E disease control rating ([1]; 0 = no control): 99*** %
- Test A disease control rating [4, 7]: 100%
- Test B disease control rating [2, 7]: 100%
- Test D disease control rating ([3]; 0 = no control): 99*** %

Compound: CCOC(=O)c1cnn(Cc2ccc(O/C=C(\OCC)C(F)(F)F)c(I)c2)c1 [compound 374]
- Test E disease control rating ([1]; 0 = no control): 76*** %
- Test A disease control rating [4, 7]: 0%
- Test B disease control rating [2, 7]: 0%
- Test D disease control rating ([3]; 0 = no control): 0*** %

Compound: CC1CC(C)(C)c2c(F)ccc(NC(=O)c3cn(C)nc3C(F)F)c21 (stereo not shown) [fluindapyr]
- Obsd disease control ([5]; fluindapyr 8.820 ppm alone, Table C-1): 61%
- Obsd disease control ([5]; fluindapyr 8.820 ppm alone, Table C-2): 61%
- Obsd disease control ([5]; fluindapyr 15.230 ppm alone, Table C-1): 79%
- Obsd disease control ([5]; fluindapyr 15.230 ppm alone, Table C-2): 79%

Compound: CON=C(C(=O)OC)c1ccccc1CON=C(C)c1cccc(C(F)(F)F)c1 [trifloxystrobin]
- pest or weed control at 20.511 ppm [5, 10]: 69%
- pest or weed control at 35.31 ppm [5, 10]: 86%
- pest or weed control at 20.511 ppm ([5]; Table E-1): 69%
- pest or weed control at 35.31 ppm ([5]; Table E-1): 86%

Compound: OC(Cn1cncn1)(c1ccc(F)cc1)c1ccccc1F (stereo not shown) [flutriafol]
- pest or weed control at 544.265 ppm [5, 11]: 13%
- pest or weed control at 544.265 ppm [5, 12]: 13%
- pest or weed control at 1124.02 ppm [5, 11]: 52%
- pest or weed control at 1124.02 ppm [5, 12]: 52%

Compound: CCOC(=COc1ccc(NC(=O)c2ccccc2F)cc1)C(F)(F)F [compound 461]
- Test E disease control rating ([1]; 0 = no control): 69*** %
- Test A disease control rating [4, 7]: 0%
- Test B disease control rating [2, 7]: 0%
- Test D disease control rating ([3]; 0 = no control): 53*** %

Compound: COC(=O)c1ccc(OCC(O)(O)C(F)(F)F)cc1 [Compound 229, methyl 4-(3,3,3-trifluoro-2,2-dihydroxypropoxy)phenylcarboxylate]
- pest or weed control at 250 ppm [1, 13]: 99%
- pest or weed control at 50 ppm [2, 6]: 100%
- pest or weed control at 250 ppm ([3]; wheat seedlings): 96%

Compound: Cn1cc(C(=O)Nc2ccc(F)cc2-c2ccc(Cl)c(Cl)c2)c(C(F)F)n1 [bixafen]
- Obsd disease control ([5]; bixafen 11.327 ppm alone, Table C-1): 54%
- Obsd disease control ([5]; bixafen 11.327 ppm alone, Table C-2): 54%
- Obsd disease control ([5]; bixafen 19.525 ppm alone, Table C-1): 55%
- Obsd disease control ([5]; bixafen 19.525 ppm alone, Table C-2): 55%

Compound: CCOC(=O)c1cnn(Cc2ccc(OCC(O)(O)C(F)(F)F)cc2)c1 [Compound 1, ethyl 1-[[4-(3,3,3-trifluoro-2,2-dihydroxypropoxy)phenyl]methyl]-1H-pyrazole-4-carboxylate]
- pest or weed control at 250 ppm [1, 13]: 81%
- pest or weed control at 250 ppm ([2]; Puccinia recondita, 250 ppm test suspension, wheat seedlings): 91%
- pest or weed control at 250 ppm ([3]; wheat seedlings): 97%

Compound: CCS(=O)(=O)Cc1ccc(OCC(O)(O)C(F)(F)F)cc1 [compound 29]
- Test E disease control rating ([1]; wheat seedlings): 79*** %
- Test A disease control rating [4, 8]: 84%
- Test B disease control rating [2, 9]: 28%
- Test D disease control rating ([3]; wheat seedlings): 0*** %

Compound: CCOC(=O)c1cnn(Cc2ccc(OCC(O)(O)C(F)(F)F)c(F)c2)c1 [Compound 264]
- Test E disease control rating ([1]; 0 = no control): 96*** %
- Test A disease control rating [4, 14]: 99%
- Test B disease control rating [2, 14]: 80%
- Test D disease control rating ([3]; 0 = no control): 95*** %

Compound: CCOC(=O)c1cnn(Cc2ccc(N(C#N)CC(O)(O)C(F)(F)F)cc2)c1 [compound 381]
- Test E disease control rating ([1]; 0 = no control): 69*** %
- Test A disease control rating [4, 14]: 25%
- Test B disease control rating [2, 14]: 28%
- Test D disease control rating ([3]; 0 = no control): 0*** %

Compound: CC(Cc1ccc(C(C)(C)C)cc1)CN1C[C@@H](C)O[C@@H](C)C1 (stereo partly shown) [fenpropimorph]
- pest or weed control at 242.823 ppm [5, 15]: 33%
- pest or weed control at 242.823 ppm [5, 16]: 33%
- pest or weed control at 458.587 ppm [5, 15]: 44%
- pest or weed control at 458.587 ppm [5, 16]: 44%
